Measured values published in patent US20100034778A1, “STEM CELLS” (DUKE UNIVERSITY, priority 2005, published 2010).
“And” between values parts separate entries of the source, which are not always exact repeats. Identical values can stand only once. “Also recorded” adds a separate entry of the source.

Experiments:
[1] = test system: CB CD34^+CD38^−lin^− cells; test: Culture of human CB CD34+CD38-lin- cells with TSF plus retinoid/rexinoid ligand (immunophenotype, CFC content); format: cell-based
Procedure: (§1) Isolation of Human BM and CB CD34^+CD38^−lin− cells
(§2) Whole BM and CB units were obtained from the Duke University Stem Cell Laboratory within 48 hours of collection. Volume reduction of CB units was accomplished by 10 minute incubation at room temperature with 1% Hetastarch (Abbott Laboratories, North Chicago, Ill.), followed by centrifugation at 700 rpm for 10 minutes to facilitate component separation. The buffy coat was collected and washed twice with Dulbecco's phosphate buffered saline (PBS; Invitrogen, Carlsbad, Calif.) containing 10% heat-inactivated fetal bovine serum (FBS; Hyclone, Logan, Utah), 100 U/ml penicillin, and […] streptomycin (1% pcn/strp; Invitrogen). Cell pellets were resuspended in PBS with 10% FBS and 1% pcn/strp and overlaid onto Lymphoprep (Axis-Shield, Olso, Norway) and centrifuged at 1500 rpm for 30 minutes to isolate the mononuclear cell (MNC) fraction. MNCs were collected and washed twice before proceeding to lineage depletion.
(§3) Briefly, CB or BM MNCs were resuspended at 5−8×10^7 cells/ml in PBS with 10% FBS and 1% pcn/strp and incubated with 100 μl/ml antibody cocktail for 30 minutes followed by incubation with 60 μl/ml magnetic colloid for 30 minutes. Cells were then magnetically depleted on a pump fed negative selection column (Stem Cell Technologies) using the manufacturer's recommended procedure. Lin-cells were washed twice, quantified by hemacytometer count and cryopreserved in 90% FBS and 10% dimethylsulfoxide (DMSO; Sigma-Aldrich, St. Louis, Mo.) or utilized directly for further experiments.
(§4) Lin^− CB or BM cells were thawed, washed once in Iscove's Modified Dulbecco's Medium (IMDM; Invitrogen) containing 10% FBS and 1% pcn/strp, counted, and resuspended at 5−10×10^7/ml. Immunofluorescent staining was conducted using anti-human CD34-fluorescein isothiocyanate (FITC) and anti-human CD38-phycoerythrin (PE) monoclonal antibodies (Becton Dickinson, San Jose, Calif.), for 30 minutes on ice. Stained cells were washed twice and resuspended at 1×10^7 cells/ml in IMDM with 10% FBS and 1% pcn/strp. Analysis and sterile cell sorting was conducted using a FACSvantage flow cytometer (Becton Dickinson) to isolate CD34^+CD38^− and CD34^+CD38^+ subsets. The CD34^+CD38^− sort gate was set to collect only those events falling in the lowest 5% of PE fluorescence within the total CD34^+ population, to ensure acquisition of highly purified CD34^+CD38^− cells.
(§5) Analysis of In Vitro Hematopoietic Activity of Human CD34^+CD38^−lin^− Cells Following Culture with LGD1506
(§6) Primary human BM and CB CD34^+CD38^−lin cells were placed in culture with 20 ng/mL thrombopoietin, 100 ng/mL stem cell factor (SCF), and flt-3 ligand (TSF), a cytokine combination previously found to induce human stem and progenitor cell proliferation and differentiation in vitro (Chute et al, Blood 105:576-583 (2005), Chute et al, Stem ells 22:202-215 (2004)).
In order to assess the hematopoietic effects of retinoid agonists on purified human HSCs, BM and CB CD34^+CD38^−lin^− cells were placed in culture with TSP with and without 1 μM all-trans retinoic acid (ATRA), an agonist of RAR. […] The hematopoietic activities of LGD0815, an RARA agonist, LGD0268, an RXR agonist, and LGD1506, an RXR selective modulator, in combination with TSF, were evaluated via measurement of total cell expansion, immunophenotype analysis, CFC content and morphologic analysis of cultured progeny versus day 0 (input) BM or CB CD34^+CD38^−lin^− cells.

[2] = test system: BM CD34^+CD38^−lin^− cells; test: Culture of human BM CD34+CD38-lin- cells with TSF plus retinoid/rexinoid ligand (total cell expansion, immunophenotype, CFC content, morphology); format: cell-based
Procedure: as §1, §2, §3, §4, §5, §6
In order to assess the hematopoietic effects of retinoid agonists on purified human HSCs, BM and CB CD34^+CD38^−lin^− cells were placed in culture with TSP with and without 1 μM all-trans retinoic acid (ATRA), an agonist of RAR. Total cell expansion, immunophenotype, colony forming cell (CFC) content and morphologic analysis was performed on ATRA-treated progeny and compared with both day 0 CD34^+CD38^−lin^− populations and the progeny of TSF alone to assess the impact of retinoid agonism on the differentiation of human HSCs. This analysis was extended further by cultivating BM and CB CD34^+CD38^−lin^− cells with TSF coupled with ligands with specific affinity for either RAR or RXR (provided courtesy of Ligand Pharmaceuticals, Inc., San Diego, Calif.). The hematopoietic activities of LGD0815, an RARA agonist, LGD0268, an RXR agonist, and LGD1506, an RXR selective modulator, in combination with TSF, were evaluated via measurement of total cell expansion, immunophenotype analysis, CFC content and morphologic analysis of cultured progeny versus day 0 (input) BM or CB CD34^+CD38^−lin^− cells.

HOXB4 = test: Quantitative real-time PCR of HOXB4 expression in cultured CB CD34+CD38-lin- cells; format: cell-based, human
From the text: Real Time PCR Analysis of LGD506-Treated HSCs
Extraction of total RNA from Day 0 and Day 7 CB CD34^+ populations was done using a RNeasy Mini spin column (Qiagen, Valencia, Calif.) according to the manufacturer's recommended protocol. […] Briefly, total RNA was isolated from CD34^+CD38^−lin^− cells according to the manufacturer's instructions for the RNaqueous®—Micro (Ambion) and reversed-transcribed to cDNA using iScript™ cDNA synthesis Kit (Biorad, Hercules, Calif.). cDNA concentrations were measured with a fluorometer (Turner Designs, Sunnyvale, Calif.) using RiboGreen reagent (Invitrogen). PCR amplification reactions were performed in 13 μl and contained equal amounts of cDNAs, 6.5 μL of iQ SYBR green supermix (Bio-Rad), 0.2 μM of each forward and reverse gene-specific primers for genes of interest and the normalization gene 36B4. PCR was performed on an iCycler (Bio-Rad) according to the following cycling conditions: an initial cycle of 15 min at 95° C.; 45 cycles of 45 sec at 95° C., 15 sec at 55° C., and 15 sec at 72° C.; followed by a melt-curve analysis cycle with steps of 10 sec each at 0.5° C. increments from 60 to 95° C. Amplification rates were visualized and analyzed on ICYCLER IQ optical system software version 3.0 (Bio-Rad). Gene-specific primers were purchased from Integrated DNA Technologies (Coralville, Iowa).

RXR:RAR heterodimer = conditions: unpublished data of M. Leibowitz et al.; cited from earlier work
human BM SRCs = test: In vivo long-term repopulating assay in NOD/SCID mice (SRC assay) of cultured progeny
Procedure: In Vivo Long-Term Repopulating Assays in NOD/SCID Mice
NOD/SCID mice (Schulz et al, J. Immunol. 154:180-191 (1995)) were transplanted with either day 0 FACS-sorted BM or CB CD34^+CD38^− lin^− HSC-enriched cells or the progeny of CD34^+CD38^−lin− cells cultured with TSF alone or TSF supplemented with 1 μM LGD506, an RXR-specific ligand. Cells were transplanted via tail vein injection after irradiating NOD/SCID mice with 300 cGy using an X-ray irradiator as previously described (Chute et al, Blood 100:4433-4439 (2002), Chute et al, Blood 105:576-583 (2005)). Day 0 CD34^+CD38^−lin− HSCs and their progeny were co-transplanted with 2×10^4 […] accessory cells to facilitate engraftment as previously described (Bonnet et al, Bone Marrow Transpl. 23:203-209 (1999), Bhatia et al, Proc. Natl. Acad. Sci. USA 94:5320-5325 (1997)).
All mice in each group were sacrificed at week 8 and marrow samples were obtained by flushing their femurs with IMDM at 4° C. Red cells were lysed using red cell lysis buffer (Sigma-Aldrich) and flow cytometric analysis of human hematopoietic engraftment was performed as previously described using commercially available mAbs against human leukocyte differentiation antigens to identify engrafted human leukocytes and discriminate their hematopoietic lineages (Chute et al, Blood 100:4433-4439 (2002), Chute et al, Blood 105:576-583 (2005), Trischmann et al, J. Hematother. 2:305-313 (1993)).
Statistical Analysis and SRC Frequency Measurements
Comparisons of data from in vitro experiments were made using the Student's t test. For purposes of the limiting dilution analysis, a transplanted mouse was scored as positively engrafted if ≧0.1% of the marrow cells expressed human-CD45 via high resolution FACS analysis. This criteria is consistent with previously published criteria for human cell repopulation in NOD/SCID mice (Chute et al, Blood 100:4433-4439 (2002), Dorrell et al, Blood 95:102-110 (2000)). SRC frequency in each cell source was calculated using the maximum likelihood estimator as described previously by Taswell (J. Immunol. 126:1614-1619 (1981), Wang et al, Blood 89:3919-3924 (1997), Ueda et al, J. Clin. Invest. 105:1013-1021 (2000)). Confidence intervals for the frequencies were calculated using the profile likelihood method, and the likelihood ratio test was used to confirm the fit of the model.

RXR:LXR heterodimer = conditions: unpublished data of M. Leibowitz et al.; cited from earlier work

For `CC1=C(/C=C/C(C)=C/C=C/C(C)=C/C(=O)O)C(C)(C)CCC1` [ATRA, all-trans retinoic acid], the “differentiation of human HSCs during culture” value ([1]; ATRA with TSF, by day 7) was “enhanced the differentiation; also recorded: induced pronounced differentiation and myelbid maturation”, the “number of CFCs” value ([1]; CB cells, ATRA+TSF versus TSF alone) was “signficantly less CFCs; also recorded: decreased” and the “percentage of CD34+ cells” value ([1]; CB cells, TSF+1 μM ATRA, 7 days, versus TSF alone) was “marked loss; also recorded: declined relative to TSF alone”. For the same compound, the “CD34+CD38- cells remaining in culture” value ([1]; CB cells, TSF+1 μM ATRA, day 7) was “marked loss; also recorded: no CD34^+CD38^− cells remained” and the “percentage of CD34+CD38- cells at day 7” value ([2]; BM cells, TSF+1 μM ligand, day 7) was “caused a decline”.

For `C/C(=C/C=C/C(C)=C/C(=O)O)c1cc(C(C)(C)C)cc(C(C)(C)C)c1OCC(F)F` [LGD1506], the “HOXB4 expression over time” value (HOXB4; LGD1506+TSF versus TSF alone (FIG. 3A)) was “prevented the downregulation”, the “HOXB4 expression, percent of input (day 0) levels” value (HOXB4; LGD1506 added to TSF) was 80% and 70% and the “maintenance of CD34+CD38- cells in CB cultures” value ([1]; CB cells, TSF+LGD1506) was “supported the maintenance”. For the same compound, the “effect on RXR:RAR heterodimer” value (RXR:RAR heterodimer) was “neutral or inhibitory effects”, the “huCD45+ cell repopulation of transplanted mice” value (human BM SRCs; cell dose 1−2.5×10^3, progeny of TSF+LGD1506 culture) was “no huCD45+ cell repopulation was detected” and the “multilineage differentiation in engrafted mice” value (human BM SRCs; mice engrafted with LGD1506-treated cells) was “normal multilineage differentiation was evident”. For the same compound, the “percent of transplanted mice with human repopulation” value (human BM SRCs; progeny of 5×10^3 BM CD34+CD38-lin- cells, LGD1506+TSF) was 50-80% and 80%, the “mice showing huCD45+ cell repopulation” value (human BM SRCs; progeny of 5×10^3 BM CD34+CD38-lin- cells, LGD1506+TSF, week 8) was 4 of 5 and the “mean huCD45+ cell repopulation” value (human BM SRCs; progeny of 5×10^3 BM cells, LGD1506+TSF) was 0.2%. The “increase in BM CD34+CD38- cell numbers compared to day 0 (input)” value ([2]; BM cells, LGD1506+TSF) was 4 fold, the total cell expansion ([2]; BM cells, LGD1506+TSF, day 7) was 13 fold and the “reduction in CFC production during culture compared to TSF alone” value ([2]; LGD1506+TSF culture (FIG. 2D)) was 50%. For the same compound, the “morphologic examination of cultured progeny” value ([2]; LGD1506+TSF cultures, data not shown) was “predominance of immature blasts”, the “differentiation of human HSCs during culture” value ([2]; LGD1506 with TSF) was “inhibited HSC differentiation” and the “CFCs less compared to TSF-cultured cells” value ([2]; progeny of LGD1506+TSF cultures) was 2 fold. The “effect on RXR:LXR heterodimer” value (RXR:LXR heterodimer) was “inhibit”.
